Converted amounts (≈) assume the structure as drawn.
Columns and labels:
Type in all cases: functional
[1] = system: Mycobacterium tuberculosis; experiment: Antimycobacterial activity against rifampicin-resistant Mycobacterium tuberculosis after 2 to 3 weeks by turbidity assay
[2] = system: Mycobacterium tuberculosis; experiment: Antimycobacterial activity against INH-resistant Mycobacterium tuberculosis after 2 to 3 weeks by turbidity assay
[3] = system: Mycobacterium tuberculosis; experiment: Antimycobacterial activity against streptomycin-resistant Mycobacterium tuberculosis after 2 to 3 weeks by turbidity assay

COCCN1CCN(C(=O)c2nc3cc(C(F)(F)F)c(C)c([N+](=O)[O-])c3s2)CC1
MIC [1]: 1 µg/mL (≈ 2.31 µM) | MIC [2]: 1 µg/mL (≈ 2.31 µM) | MIC [3]: 1 µg/mL (≈ 2.31 µM)

O=C(NCc1ccccn1)c1sc2c([N+](=O)[O-])cc(C(F)(F)F)cc2[n+]1[O-]
MIC [1]: 0.03 µg/mL (≈ 0.0753 µM) | MIC [2]: 0.06 µg/mL (≈ 0.151 µM) | MIC [3]: 0.06 µg/mL (≈ 0.151 µM)

O=C(NCc1ccccn1)c1nc2cc(C(F)(F)F)cc([N+](=O)[O-])c2s1
MIC [1]: 0.25 µg/mL (≈ 0.654 µM) | MIC [2]: 0.12 µg/mL (≈ 0.314 µM) | MIC [3]: 0.25 µg/mL (≈ 0.654 µM)

Cc1c(C(F)(F)F)cc2nc(C(=O)N3CCCCC3)sc2c1[N+](=O)[O-]
MIC [1]: 0.5 µg/mL (≈ 1.34 µM) | MIC [2]: 0.25 µg/mL (≈ 0.67 µM) | MIC [3]: 0.25 µg/mL (≈ 0.67 µM)

From ChEMBL document CHEMBL3739380, “Discovery of benzothiazoles as antimycobacterial agents: Synthesis, structure-activity relationships and binding studies with Mycobacterium tuberculosis decaprenylphosphoryl-β-D-ribose 2'-oxidase” (Bioorg Med Chem, 2015)
